Experimental findings from patent publication US20030040644A1, “Synthesis of nitroalcohol diastereomers” (Pharm-Eco Laboratories, Inc., priority 1999, published 2003) are described below.

“And” between values parts separate entries of the source, which are not always exact repeats. Identical values can stand only once.

This data set in a line: Solubility of the diastereomers in several solvent systems (mobile phases). Type of data set: physicochemical. Here is the method:
In order to have a concentrated sample for loading on the simulated moving bed separation system, a high degree of solubility in the mobile phase to be used for the separation is desirable. Therefore, the solubility of the 1-nitro-3-benzyl-3-(N-ethoxycarbonyl)amino-2-propanol diastereomers in several solvent systems was determined.

On to `CCOC(=O)NC(Cc1ccccc1)C(O)C[N+](=O)[O-]` (single isomer, unassigned) [1-nitro-3-benzyl-3-benzyl-3-(N-ethoxycarbonyl)amino-2-propanol diastereomers, 1-nitro-3-benzyl-3-(N-ethoxycarbonyl)amino-2-propanol], for which the “% Solubility” value was 3.8% (mobile phase 10% ethyl acetate/90% methylene chloride); 1.7% (mobile phase 40% water/60% methanol); 20% (mobile phase 50% heptane/50% THF); 3.81% (mobile phase 50% heptane/50% ethyl acetate); 78% (mobile phase 50% methanol/50% THF); 3.29% (mobile phase 60% water/40% acetonitrile). Also, the “% Solubility” value is 4% (mobile phase 70% heptane/30% THF); 20% (mobile phase 70% heptane/30% ethanol); 1.11% and 1.09% and 1.31% (mobile phase 70% heptane/30% ethyl acetate); 0.36% (mobile phase 70% heptane/30% isopropanol); 0.31% and 1.86% (mobile phase 80% heptane/20% ethanol); 6% (mobile phase 80% toluene/20% THF). The “% Solubility” value (mobile phase 100% methanol) was 40%.
